# Reference: PubChem BioAssay (NCI)
#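 At the GI50, growth is halved. TGI denotes the concentration required for complete inhibition of growth.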
# Key:
# Experiment in all cases: inhibition of tumour cell growth, NCI panel, 384-well format
# SK-MEL-2 melanoma = system: SK-MEL-2 melanoma
# CCRF-CEM leukemia = system: CCRF-CEM leukemia
# SNB-19 CNS = system: SNB-19 CNS
# SN12C renal = system: SN12C renal
# HOP-92 NSCLC = system: HOP-92 NSCLC
# SK-MEL-28 melanoma = system: SK-MEL-28 melanoma
# MDA-MB-435 melanoma = system: MDA-MB-435 melanoma
# HL-60(TB) leukemia = system: HL-60(TB) leukemia
# DU-145 prostate = system: DU-145 prostate
# A549 NSCLC = system: A549 NSCLC
# CAKI-1 renal = system: CAKI-1 renal
# HCT-116 colon = system: HCT-116 colon
# RPMI-8226 leukemia = system: RPMI-8226 leukemia
# HT29 colon = system: HT29 colon
# KM12 colon = system: KM12 colon
# 786-0 renal = system: 786-0 renal
# MALME-3M melanoma = system: MALME-3M melanoma
# UACC-257 melanoma = system: UACC-257 melanoma
# LOX IMVI melanoma = system: LOX IMVI melanoma
# NCI-H322M lung = system: NCI-H322M lung
# OVCAR-4 ovarian = system: OVCAR-4 ovarian
# MOLT-4 leukemia = system: MOLT-4 leukemia
# M14 melanoma = system: M14 melanoma
# SF-539 CNS = system: SF-539 CNS
# NCI-H522 lung = system: NCI-H522 lung
# OVCAR-3 ovarian = system: OVCAR-3 ovarian
# NCI-H23 lung = system: NCI-H23 lung
# A498 renal = system: A498 renal
# OVCAR-5 ovarian = system: OVCAR-5 ovarian
# MDA-MB-468 breast = system: MDA-MB-468 breast
# NCI/ADR-RES ovarian = system: NCI/ADR-RES ovarian
# UO-31 renal = system: UO-31 renal
# SW-620 colon = system: SW-620 colon
# K-562 leukemia = system: K-562 leukemia
# RXF 393 renal = system: RXF 393 renal
# NCI-H460 NSCLC = system: NCI-H460 NSCLC
# NCI-H226 lung = system: NCI-H226 lung
# HOP-62 NSCLC = system: HOP-62 NSCLC
# UACC-62 melanoma = system: UACC-62 melanoma
# T-47D breast = system: T-47D breast
# TK-10 renal = system: TK-10 renal
# PC-3 prostate = system: PC-3 prostate
# OVCAR-8 ovarian = system: OVCAR-8 ovarian
# SK-MEL-5 melanoma = system: SK-MEL-5 melanoma
# BT-549 breast = system: BT-549 breast
# U251 glioblastoma = system: U251 glioblastoma
# SF-295 CNS = system: SF-295 CNS
# ACHN renal = system: ACHN renal
# IGROV1 ovarian = system: IGROV1 ovarian
# MDA-MB-231 breast = system: MDA-MB-231 breast
# HCC-2998 colon = system: HCC-2998 colon
# SR leukemia = system: SR leukemia
# COLO 205 colon = system: COLO 205 colon
# SK-OV-3 ovarian = system: SK-OV-3 ovarian
# MCF7 breast = system: MCF7 breast
# SF-268 CNS = system: SF-268 CNS
# HCT-15 colon = system: HCT-15 colon
structure (smiles),measurement,setting,value
COc1cc2c(Oc3ccc(-c4cnc(Nc5ccc(F)cc5)n(C)c4=O)cc3F)ccnc2cc1OCCCN1CCOCC1,GI50,SK-MEL-2 melanoma,495 nM
same,TGI,SK-MEL-2 melanoma,1510 nM
same,GI50,CCRF-CEM leukemia,1070 nM
same,TGI,CCRF-CEM leukemia,2260 nM
same,GI50,SNB-19 CNS,1260 nM
same,TGI,SNB-19 CNS,2520 nM
same,GI50,SN12C renal,247 nM
same,TGI,SN12C renal,1290 nM
same,GI50,HOP-92 NSCLC,76.4 nM
same,TGI,HOP-92 NSCLC,452 nM
same,GI50,SK-MEL-28 melanoma,258 nM
same,TGI,SK-MEL-28 melanoma,923 nM
same,GI50,MDA-MB-435 melanoma,384 nM
same,TGI,MDA-MB-435 melanoma,1390 nM
same,GI50,HL-60(TB) leukemia,268 nM
same,TGI,HL-60(TB) leukemia,1130 nM
same,GI50,DU-145 prostate,1470 nM
same,TGI,DU-145 prostate,2800 nM
same,GI50,A549 NSCLC,572 nM
same,TGI,A549 NSCLC,1800 nM
same,GI50,CAKI-1 renal,368 nM
same,TGI,CAKI-1 renal,1410 nM
same,GI50,HCT-116 colon,704 nM
same,TGI,HCT-116 colon,2000 nM
same,GI50,RPMI-8226 leukemia,545 nM
same,TGI,RPMI-8226 leukemia,1740 nM
same,GI50,HT29 colon,275 nM
same,TGI,HT29 colon,1200 nM
same,TGI,KM12 colon,308 nM
same,GI50,786-0 renal,1240 nM
same,TGI,786-0 renal,2490 nM
same,GI50,MALME-3M melanoma,140 nM
same,TGI,MALME-3M melanoma,453 nM
same,GI50,UACC-257 melanoma,252 nM
same,TGI,UACC-257 melanoma,1090 nM
same,GI50,LOX IMVI melanoma,402 nM
same,TGI,LOX IMVI melanoma,1450 nM
same,GI50,NCI-H322M lung,761 nM
same,TGI,NCI-H322M lung,2020 nM
same,GI50,OVCAR-4 ovarian,1110 nM
same,TGI,OVCAR-4 ovarian,2320 nM
same,GI50,MOLT-4 leukemia,150 nM
same,TGI,MOLT-4 leukemia,369 nM
same,GI50,M14 melanoma,248 nM
same,TGI,M14 melanoma,814 nM
same,GI50,SF-539 CNS,257 nM
same,TGI,SF-539 CNS,1150 nM
same,GI50,NCI-H522 lung,1040 nM
same,TGI,NCI-H522 lung,2210 nM
same,GI50,OVCAR-3 ovarian,804 nM
same,TGI,OVCAR-3 ovarian,2040 nM
same,GI50,NCI-H23 lung,237 nM
same,TGI,NCI-H23 lung,1350 nM
same,GI50,A498 renal,1240 nM
same,TGI,A498 renal,2500 nM
same,GI50,OVCAR-5 ovarian,811 nM
same,TGI,OVCAR-5 ovarian,2050 nM
same,GI50,MDA-MB-468 breast,1540 nM
same,TGI,MDA-MB-468 breast,2870 nM
same,GI50,NCI/ADR-RES ovarian,1180 nM
same,TGI,NCI/ADR-RES ovarian,2410 nM
same,GI50,UO-31 renal,409 nM
same,TGI,UO-31 renal,1430 nM
same,GI50,SW-620 colon,509 nM
same,TGI,SW-620 colon,1880 nM
same,GI50,K-562 leukemia,10.7 nM
same,TGI,K-562 leukemia,23.4 nM
same,GI50,RXF 393 renal,189 nM
same,TGI,RXF 393 renal,541 nM
same,GI50,NCI-H460 NSCLC,526 nM
same,TGI,NCI-H460 NSCLC,1790 nM
same,GI50,NCI-H226 lung,476 nM
same,TGI,NCI-H226 lung,1570 nM
same,GI50,HOP-62 NSCLC,1310 nM
same,TGI,HOP-62 NSCLC,2590 nM
same,GI50,UACC-62 melanoma,288 nM
same,TGI,UACC-62 melanoma,1250 nM
same,GI50,T-47D breast,1070 nM
same,TGI,T-47D breast,2260 nM
same,GI50,TK-10 renal,1160 nM
same,TGI,TK-10 renal,2400 nM
same,GI50,PC-3 prostate,1520 nM
same,TGI,PC-3 prostate,2860 nM
same,GI50,OVCAR-8 ovarian,1310 nM
same,TGI,OVCAR-8 ovarian,2590 nM
same,GI50,SK-MEL-5 melanoma,329 nM
same,TGI,SK-MEL-5 melanoma,1500 nM
same,GI50,BT-549 breast,684 nM
same,TGI,BT-549 breast,1870 nM
same,GI50,U251 glioblastoma,1140 nM
same,TGI,U251 glioblastoma,2360 nM
same,GI50,SF-295 CNS,439 nM
same,TGI,SF-295 CNS,1640 nM
same,GI50,ACHN renal,313 nM
same,TGI,ACHN renal,1460 nM
same,GI50,IGROV1 ovarian,368 nM
same,TGI,IGROV1 ovarian,1470 nM
same,GI50,MDA-MB-231 breast,748 nM
same,TGI,MDA-MB-231 breast,2030 nM
same,GI50,HCC-2998 colon,1170 nM
same,TGI,HCC-2998 colon,2400 nM
same,GI50,SR leukemia,513 nM
same,TGI,SR leukemia,1680 nM
same,GI50,COLO 205 colon,227 nM
same,TGI,COLO 205 colon,761 nM
same,GI50,SK-OV-3 ovarian,680 nM
same,TGI,SK-OV-3 ovarian,1990 nM
same,GI50,MCF7 breast,441 nM
same,TGI,MCF7 breast,1620 nM
same,GI50,SF-268 CNS,1160 nM
same,TGI,SF-268 CNS,2390 nM
same,GI50,HCT-15 colon,792 nM
same,TGI,HCT-15 colon,2030 nM
